Reference: ChEMBL document CHEMBL4837181 (Eur J Med Chem, 2020)
Values belong to the molecule of their own block, whether it stands above or below them.

Experiments:
[1] = Half life in mouse at 20 to 900 mg/kg, po; assay type: ADME, organism-based; conditions: in vivo, dose 20-900 mg/kg
[2] = Half life in female cynomolgus monkey at 15 mg/kg, iv measured on day 1; assay type: ADME, organism-based, Macaca fascicularis; conditions: in vivo
[3] = Clearance in female cynomolgus monkey at 15 mg/kg, iv measured on day 1; assay type: ADME, organism-based, Macaca fascicularis; conditions: in vivo, time 1 day
[4] = AUC (0 to 12 hrs) in human up to 1200 mg administered bid; assay type: ADME; design: time < 12 hr, dose <=1200
[5] = Dose normalized Cmax in rat at 50 mg/kg, po measured upto 72 hrs by LC-MS/MS analysis; assay type: ADME, organism-based; conditions: in vivo
[6] = Cmax in human up to 1200 mg administered bid; assay type: ADME; design: dose <=1200
[7] = Tmax in male cynomolgus monkey at 75 mg/kg, po measured on day 1; assay type: ADME, organism-based, Macaca fascicularis; conditions: in vivo
[8] = AUC (0 to infinity) in human at 2400 mg administered bid; assay type: ADME; design: time infinity, dose 2400 mg; conditions: in vivo
[9] = Half life in female cynomolgus monkey at 375 mg/kg, po BID measured on day 8; assay type: ADME, organism-based, Macaca fascicularis; conditions: in vivo
[10] = AUC (0 to 24 hrs) in female cynomolgus monkey at 225 mg/kg, po measured on day 1; assay type: ADME, organism-based, Macaca fascicularis; design: time < 24 hr, route oral, dose 225 mg/kg; conditions: in vivo
[11] = AUC (0 to 24 hrs) in male cynomolgus monkey at 75 mg/kg, po measured on day 1; assay type: ADME, organism-based, Macaca fascicularis; design: time < 24 hr, route oral, dose 75 mg/kg; conditions: in vivo
[12] = Cmax in mouse at 62 mg/kg administered bid; assay type: ADME, organism-based; design: dose 62 mg/kg; conditions: in vivo
[13] = Oral bioavailability in rat; assay type: ADME, organism-based; conditions: in vivo
[14] = Half life in female cynomolgus monkey at 225 mg/kg, po measured on day 1; assay type: ADME, organism-based, Macaca fascicularis; conditions: in vivo
[15] = Average plasma concentration at steady state in mouse at 250 mg/kg administered bid; assay type: ADME, organism-based; conditions: in vivo
[16] = Half life in rat; assay type: ADME; conditions: in vivo
[17] = Half life in male cynomolgus monkey at 15 mg/kg, iv measured on day 1; assay type: ADME, organism-based, Macaca fascicularis; conditions: in vivo
[18] = Clearance in female cynomolgus monkey at 75 mg/kg, po measured on day 1; assay type: ADME, organism-based, Macaca fascicularis; conditions: in vivo
[19] = Half life in rat at 20 to 900 mg/kg, po; assay type: ADME, organism-based; conditions: in vivo, dose 20-900 mg/kg
[20] = AUC (0 to infinity) in human up to 1200 mg administered bid; assay type: ADME; design: time infinity, dose <=1200
[21] = Tmax in female cynomolgus monkey at 75 mg/kg, po measured on day 1; assay type: ADME, organism-based, Macaca fascicularis; conditions: in vivo
[22] = AUC (0 to 24 hrs) in male cynomolgus monkey at 75 mg/kg, po BID measured on day 8; assay type: ADME, organism-based, Macaca fascicularis; design: time < 24 hr, route oral, dose 75 mg/kg; conditions: in vivo
[23] = Toxicity in rat assessed as distended abdomen at 150 to 180 mg/kg, po; assay type: organism-based; conditions: in vivo, dose 150-180 mg/kg
[24] = molecular target: T1, Cytochrome P450 3A4 (Homo sapiens, UniProt P08684); test: Direct inhibition of CYP3A4 in human hepatocytes; assay type: ADME, cell-based, Hepatocyte
T1 sequence (P08684 whole entry): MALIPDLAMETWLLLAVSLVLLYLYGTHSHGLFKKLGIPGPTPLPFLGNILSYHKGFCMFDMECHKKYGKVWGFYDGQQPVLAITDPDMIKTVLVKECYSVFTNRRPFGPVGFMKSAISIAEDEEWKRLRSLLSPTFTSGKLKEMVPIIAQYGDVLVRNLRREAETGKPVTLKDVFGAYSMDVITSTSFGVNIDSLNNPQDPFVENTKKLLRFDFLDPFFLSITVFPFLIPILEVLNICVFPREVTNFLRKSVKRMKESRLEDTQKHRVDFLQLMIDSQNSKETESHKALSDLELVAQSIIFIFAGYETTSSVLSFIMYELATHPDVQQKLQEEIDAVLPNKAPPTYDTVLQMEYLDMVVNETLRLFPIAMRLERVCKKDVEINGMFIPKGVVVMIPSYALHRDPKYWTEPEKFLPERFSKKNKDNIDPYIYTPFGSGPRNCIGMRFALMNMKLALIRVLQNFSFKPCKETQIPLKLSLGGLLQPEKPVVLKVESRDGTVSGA

[25] = Toxicity in po BID rat assessed as NOAEL; assay type: organism-based; conditions: in vivo
[26] = Toxicity in cynomolgus monkey assessed as NOAEL at 150 mg/kg, po BID administered for 28 days; assay type: organism-based, Macaca fascicularis; conditions: in vivo, time 28 day
[27] = molecular target: CYP3A4 (Homo sapiens, UniProt P08684); test: Time dependent inhibition of CYP3A4 in human hepatocytes assessed as fold shift relative to control; assay type: ADME, cell-based, Hepatocyte; conditions: read-out: FC
CYP3A4, sequence (P08684 whole entry): as above

[28] = Toxicity in rat assessed as decreased food assumption at 150 to 180 mg/kg, po; assay type: organism-based; conditions: in vivo, dose 150-180 mg/kg
[29] = Genotoxicity in monkey; assay type: toxicity, Macaca mulatta; conditions: rhesus monkey
[30] = Cmax in male rat at 150 mg/kg, po BID measured on day 28; assay type: ADME, organism-based; design: route oral, dose 150 mg/kg; conditions: in vivo
[31] = Inhibition of P-gp transporter activity in MDR1-MDCK2 cells; assay type: cell-based, Canis lupus familiaris; conditions: mdckii-mdr1
[32] = Half life in male cynomolgus monkey at 75 mg/kg, po BID measured on day 8; assay type: ADME, organism-based, Macaca fascicularis; conditions: in vivo
[33] = Drug metabolism in cynomolgus monkey assessed as ratio of indoximod to parent compound at 75 to 675 mg/kg, po administered as single dose; assay type: ADME, organism-based, Macaca fascicularis; conditions: in vivo, dose 75-675 mg/kg
[34] = AUC (0 to 12 hrs) in rat po BID measured on day 28; assay type: ADME, organism-based; design: time < 12 hr, route oral; conditions: in vivo
[35] = Toxicity in monkey assessed as change in respiratory parameter; design: species or system Macaca mulatta; conditions: rhesus monkey, in vivo
[36] = Protein binding in human plasma; assay type: ADME, cell-free; conditions: read-out: PPB
[37] = Toxicity in rat assessed as mortality at 150 to 180 mg/kg, po; assay type: organism-based; conditions: in vivo, dose 150-180 mg/kg
[38] = molecular target: T1, Cytochrome P450 3A4; test: Induction of CYP3A4 in human hepatocytes; assay type: ADME, cell-based, Hepatocyte
[39] = Drug metabolism in rats assessed as ratio of indoximod to parent compound at 20 to 900 mg/kg, po administered as single dose; assay type: ADME, organism-based; conditions: rat, in vivo, dose 20-900 mg/kg
[40] = Stability in human plasma assessed as parent compound remaining measured after 24 hrs by LC-MS/MS analysis; assay type: ADME, cell-free; conditions: read-out: Stabilty
[41] = Drug metabolism in CD1 mouse hepatocytes assessed as unmetabolized compound at 10 uM incubated for 120 mins by UPLC-QTOF-PDA analysis; assay type: ADME, cell-based, Hepatocyte; conditions: read-out: Drug metabolism
[42] = Solubility in simulated gastric fluid; assay type: physicochemical
[43] = Solubility of the compound in FaSSIF; assay type: physicochemical
[44] = Drug metabolism in cynomolgus monkey assessed as ratio of indoximod to parent compound at 15 mg/kg, iv administered as single dose; assay type: ADME, organism-based, Macaca fascicularis; conditions: in vivo
[45] = molecular target: T2, Solute carrier family 22 member 6 (Homo sapiens, UniProt Q4U2R8); test: Inhibition of OAT1 (unknown origin) expressed in HEK293 cells; assay type: cell-based
T2 sequence (Q4U2R8 whole entry): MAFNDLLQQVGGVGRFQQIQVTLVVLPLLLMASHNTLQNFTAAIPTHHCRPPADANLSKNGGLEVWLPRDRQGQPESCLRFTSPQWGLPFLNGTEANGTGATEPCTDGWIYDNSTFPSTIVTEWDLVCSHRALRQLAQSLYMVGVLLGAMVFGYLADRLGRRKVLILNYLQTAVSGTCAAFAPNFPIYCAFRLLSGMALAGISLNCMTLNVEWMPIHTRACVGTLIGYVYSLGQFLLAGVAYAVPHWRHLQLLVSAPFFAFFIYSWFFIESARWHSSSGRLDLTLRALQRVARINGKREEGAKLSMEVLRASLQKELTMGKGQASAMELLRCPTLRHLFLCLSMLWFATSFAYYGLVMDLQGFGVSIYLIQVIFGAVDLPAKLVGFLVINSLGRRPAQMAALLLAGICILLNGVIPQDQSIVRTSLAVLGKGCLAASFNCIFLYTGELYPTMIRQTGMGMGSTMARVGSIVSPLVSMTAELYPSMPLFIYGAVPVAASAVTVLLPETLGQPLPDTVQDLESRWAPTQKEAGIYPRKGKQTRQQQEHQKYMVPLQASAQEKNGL

[46] = molecular target: Cytochrome P450 2C19 (Homo sapiens, UniProt P33261); test: Inhibition of CYP2C19 in human hepatocytes; assay type: ADME, cell-based, Hepatocyte
Cytochrome P450 2C19, sequence (P33261 whole entry): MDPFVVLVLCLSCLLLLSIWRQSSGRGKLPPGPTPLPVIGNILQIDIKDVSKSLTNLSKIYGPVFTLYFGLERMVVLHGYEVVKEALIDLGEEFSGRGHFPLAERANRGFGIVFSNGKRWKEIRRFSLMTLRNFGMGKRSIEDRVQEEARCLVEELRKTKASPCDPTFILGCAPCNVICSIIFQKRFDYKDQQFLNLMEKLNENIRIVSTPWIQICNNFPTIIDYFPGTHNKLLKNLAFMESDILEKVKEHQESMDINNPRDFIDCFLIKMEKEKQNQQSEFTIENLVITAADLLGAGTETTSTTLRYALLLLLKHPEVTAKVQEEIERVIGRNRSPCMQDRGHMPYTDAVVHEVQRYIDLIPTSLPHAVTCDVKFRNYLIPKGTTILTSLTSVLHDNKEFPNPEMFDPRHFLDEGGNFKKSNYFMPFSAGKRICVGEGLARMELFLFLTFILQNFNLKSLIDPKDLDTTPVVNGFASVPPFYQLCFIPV

half-life [1]: 2.2 h | half-life [2]: 1.5 h | clearance [3]: 10.2 mL/min/kg | AUC at 12 h [4]: 83 µM·h | Cmax/dose [5]: 27 µM | Cmax [6]: 13.7 µM | Tmax [7]: 2 h | AUC(0-inf) [8]: 170 µM·h | half-life [9]: 3.8 h | AUC(0-t) at 24 h [10]: 181 µM·h | AUC(0-t) at 24 h [11]: 223 µM·h | Cmax [12]: > 16 µM | bioavailability [13]: 50% | half-life [14]: 3.8 h | Cave [15]: 29 µM | half-life [16]: 30 h | half-life [17]: 2 h | CL/F [18]: 25.6 mL/min/kg | half-life [19]: 23 h | AUC(0-inf) [20]: 114 µM·h
Structure (SMILES): Cn1cc(C[C@@H](N)C(=O)O)c2ccccc21 [INDOXIMOD]

Structure (SMILES): CCOC(=O)[C@@H](Cc1cn(C)c2ccccc12)NC(=O)[C@@H](N)CC(C)C.Cl
Tmax [21]: 2 h | AUC at 24 h [22]: 177 µM·h | Activity [23]: Toxic | IC50 [24]: 5 µM | NOAEL [25]: 60 mg/kg | NOAEL at 672 h [26]: 120 mg/kg | IC50 shift [27]: 7 | Activity [28]: Toxic | Activity [29]: Non-Toxic | Cmax [30]: 169 µM | IC50 [31]: 27 µM | half-life [32]: 1.8 h | Ratio [33]: 690 | AUC at 12 h [34]: 953 µM·h | Activity [35]: Non-Toxic | fraction unbound [36]: 0.5 | Activity [37]: Toxic | Activity [38]: Not Active | Ratio [39]: > 39000 | remaining at 24 h [40]: 6% | remaining at 2 h, 10 µM [41]: 0.3% | solubility [42]: 17.1 mg/mL | solubility [43]: 19.1 mg/mL | Ratio [44]: 690 | IC50 [45]: > 50 µM | IC50 [46]: 47 µM
